{
  "source": "patent EP0570197A1",
  "about": "“Hydroxylamine derivatives” (ZENECA LIMITED, priority 1992, dated 1993)",
  "key": {"5-LO [1]": {"target": "T1, 5-LO (Homo sapiens, UniProt P09917)", "T1 construct": "incubating a test compound with heparinised human blood, prior to challenge with the calcium ionophore A23187; endogenous in cells; host or cells: human whole blood (blood cells), heparinised", "T1 sequence (P09917 1-674)": "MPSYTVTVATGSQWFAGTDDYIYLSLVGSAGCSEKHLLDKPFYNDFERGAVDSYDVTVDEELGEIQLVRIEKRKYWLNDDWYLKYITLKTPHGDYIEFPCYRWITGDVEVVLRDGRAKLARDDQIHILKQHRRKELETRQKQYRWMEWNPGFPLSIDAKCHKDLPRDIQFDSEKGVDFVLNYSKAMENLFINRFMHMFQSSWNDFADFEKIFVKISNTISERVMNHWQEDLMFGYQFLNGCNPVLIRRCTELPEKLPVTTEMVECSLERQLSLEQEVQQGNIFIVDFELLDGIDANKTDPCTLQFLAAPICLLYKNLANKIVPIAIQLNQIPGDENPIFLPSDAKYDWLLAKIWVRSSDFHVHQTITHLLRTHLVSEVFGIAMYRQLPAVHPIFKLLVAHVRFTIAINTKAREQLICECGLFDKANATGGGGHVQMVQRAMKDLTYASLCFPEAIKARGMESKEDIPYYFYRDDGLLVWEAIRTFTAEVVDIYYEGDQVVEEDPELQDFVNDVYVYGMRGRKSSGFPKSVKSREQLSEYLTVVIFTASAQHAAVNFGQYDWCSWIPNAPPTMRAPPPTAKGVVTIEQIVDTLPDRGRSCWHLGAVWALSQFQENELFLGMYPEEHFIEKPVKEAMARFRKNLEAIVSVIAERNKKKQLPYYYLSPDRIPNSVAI", "experiment": "Test a): in vitro heparinised human blood challenged with calcium ionophore A23187, radioimmunoassay of LTB₄", "format": "cell-based", "conditions": "heparinised human blood, A23187 challenge; read-out: IC₅₀ against LTB₄ in test a)", "excerpt": "As stated previously, the compounds of the formula I are inhibitors of the enzyme 5-LO. […] J. Pharmacol., 1985, 84, 34P) which involve the use of a protein-LTB₄ conjugate produced using the procedure of Young et alia (Prostaglandins, 1983, 26(4), 605-613). The effects of a test compound on the enzyme cyclooxygenase (which is involved in the alternative metabolic pathway for arachidonic acid and gives rise to prostaglandins, thromboxanes and related metabolites) may be measured at the same time using the specific radioimmunoassay for thromboxane B₂(TxB₂) described by Carey and Forder (see above). This test provides an indication of the effects of a test compound against 5-LO and also cyclooxygenase in the presence of blood cells and proteins. It permits the selectivity of the inhibitory effect on 5-LO or cyclooxygenase to be assessed. • b) An ex vivo assay system, which is a variation of test a) above, involving administration to a group of rats of a test compound (usually orally as the suspension produced when a solution of the test compound in dimethylsulphoxide is added to carboxymethylcellulose), blood collection, heparinisation, challenge with A23187 and radioimmunoassay of LTB₄ and TxB₂. This test provides an indication of the bioavailability of a test compound as an inhibitor of 5-LO or cyclooxygenase. • c) An in vivo system involving measuring the effects of a test compound administered orally against the liberation of LTB₄ induced by zymosan within an air pouch generated within the subcutaneous tissue of the back of male rats. The rats are anaesthetised and air pouches are formed by the injection of sterile air (20 ml). A further injection of air (10 ml) is similarly given after 3 days. At 6 days after the initial air injection the test compound is administered (usually orally as the suspension produced when a solution of the test compound in dimethylsulphoxide is added to hydroxypropylmethylcellulose), followed by the intrapouch injection of zymosan (lml of a 1% suspension in physiological saline). […]"}, "5-LO [2]": {"tested_on": "5-LO", "experiment": "Test c): in vivo zymosan-induced LTB₄ liberation in a subcutaneous air pouch", "set-up": "species or system male rats", "conditions": "rats killed after 3 hours", "excerpt": "As stated previously, the compounds of the formula I are inhibitors of the enzyme 5-LO. […] J. Pharmacol., 1985, 84, 34P) which involve the use of a protein-LTB₄ conjugate produced using the procedure of Young et alia (Prostaglandins, 1983, 26(4), 605-613). The effects of a test compound on the enzyme cyclooxygenase (which is involved in the alternative metabolic pathway for arachidonic acid and gives rise to prostaglandins, thromboxanes and related metabolites) may be measured at the same time using the specific radioimmunoassay for thromboxane B₂(TxB₂) described by Carey and Forder (see above). This test provides an indication of the effects of a test compound against 5-LO and also cyclooxygenase in the presence of blood cells and proteins. It permits the selectivity of the inhibitory effect on 5-LO or cyclooxygenase to be assessed. • b) An ex vivo assay system, which is a variation of test a) above, involving administration to a group of rats of a test compound (usually orally as the suspension produced when a solution of the test compound in dimethylsulphoxide is added to carboxymethylcellulose), blood collection, heparinisation, challenge with A23187 and radioimmunoassay of LTB₄ and TxB₂. […]"}},
  "data": [
    {"smiles": "COC1(c2cc(F)cc(Sc3ccc(C(C)ONC(C)=O)cc3)c2)CCOCC1", "note": "(stereo not drawn) [Example 2, 4-[5-fluoro-3-(4-methoxytetrahydropyran-4-yl)phenylthio]-α-methylbenzyl acetohydroxamate]", "values": [
      {"measurement": "IC50", "setting": "5-LO [1]", "value": 190, "unit": "nM"}
    ]},
    {"smiles": "COC1(c2cc(F)cc(Sc3ccc(C(C)ONC(N)=O)cc3)c2)CCOCC1", "note": "(stereo not drawn) [Example 4, N-{4-[5-fluoro-3-(4-methoxytetrahydropyran-4-yl)phenylthio]-α-methylbenzyloxy}urea]", "values": [
      {"measurement": "IC50", "setting": "5-LO [1]", "value": 310, "unit": "nM"}
    ]},
    {"smiles": "CCN(CC)OC(C)c1ccc(Sc2cc(F)cc(C3(OC)CCOCC3)c2)cc1", "note": "(stereo not drawn) [Example 5, N,N-diethyl-O-{4-[5-fluoro-3-(4-methoxytetrahydropyran-4-yl)phenylthio]-α-methylbenzyl}hydroxylamine]", "values": [
      {"measurement": "IC50", "setting": "5-LO [1]", "value": 150, "unit": "nM"},
      {"measurement": "oral ED₅₀ versus LTB₄ in test c)", "setting": "5-LO [2]", "value": "approximately 1.5 mg/kg"}
    ]}
  ]
}
